One series deals with human PAI-1 (Homo sapiens, UniProt P05121). The series can be described thus: Assay for Determining IC50 of Inhibition of PAI-1 (Antibody Assay). It is filed as binding. As to conditions: footnote a: determined by the Antibody Assay. As for the experimental part:
This assay is based upon the non-SDS dissociable interaction between tPA and active PAI-1. Assay plates are initially coated with human tPA (10 μg/ml). Test compounds are dissolved in DMSO at 10 mM, then diluted with physiologic buffer (pH 7.5) to a final concentration of 1-50 μM. Test compounds are incubated with human PAI-1 (50 ng/ml) for 15 minutes at room temperature. The tPA-coated plate is washed with a solution of 0.05% Tween 20 and 0.1% BSA, then the plate is blocked with a solution of 3% BSA. An aliquot of the test compound/PAI-1 solution is then added to the tPA-coated plate, incubated at room temperature for 1 hour, and washed. Active PAI-1 bound to the plate is assessed by adding an aliquot of a 1:1000 dilution of the 33B8 monoclonal antibody against human PAI-1, and incubating the plate at room temperature for 1 hour (Molecular Innovations, Royal Oak, Mich.). […] The plate is incubated 45 minutes at room temperature, and color development is determined at OD405 nm. The quantitation of active PAI-1 bound to tPA at varying concentrations of test compound is used to determine the IC50. Results are analyzed using a logarithmic best-fit equation. The assay sensitivity is 5 ng/ml of human PAI-1 as determined from a standard curve ranging from 0-100 ng/ml.

Series [1] deals with T1, recombinant human plasminogen activator inhibitor-1 (PAI-1) (Homo sapiens, UniProt P05121).
T1 construct: purchased Molecular Innovations, Royal Oak, Mich
Put plainly: Primary Screen for the PAI-1 Inhibition. It is filed as biochemical. As to conditions: for inhibition at 25 µM: 25 μM test compound; for IC50: footnote b: determined by a modification of the Primary Screen for PAI-1 Inhibition. On the procedure:
Test compounds are dissolved in DMSO at a final concentration of 10 mM, then diluted 100× in physiologic buffer. The inhibitory assay is initiated by the addition of the test compound (1-100 μM final concentration, maximum DMSO concentration of 0.2%) in a pH 6.6 buffer containing 140 nM recombinant human plasminogen activator inhibitor-1 (PAI-1; Molecular Innovations, Royal Oak, Mich.). Following a 1 hour incubation at room temperature, 70 nM of recombinant human tissue plasminogen activator (tPA) is added, and the combination of the test compound, PAI-1 and tPA is incubated for an additional 30 minutes. Following the second incubation, Spectrozyme-tPA (American Diagnostica, Greenwich, Conn.), a chromogenic substrate for tPA, is added and absorbance read at 405 nm at 0 and 60 minutes. Relative PAI-1 inhibition is equal to the residual tPA activity in the presence of the test compound and PAI-1. Control treatments include the complete inhibition of tPA by PAI-1 at the molar ratio employed (2:1), and the absence of any effect of the test compound on tPA alone.

A word on the melting point: it is the temperature, or range, at which the solid turns liquid. By IC50 is commonly meant the point on the concentration scale where inhibition reaches its midpoint. For orientation: inhibition means the relative decrease from the control value, in per cent.

Where a name gives a salt, the structure may show the parent alone.

T1 sequence (P05121 24-402): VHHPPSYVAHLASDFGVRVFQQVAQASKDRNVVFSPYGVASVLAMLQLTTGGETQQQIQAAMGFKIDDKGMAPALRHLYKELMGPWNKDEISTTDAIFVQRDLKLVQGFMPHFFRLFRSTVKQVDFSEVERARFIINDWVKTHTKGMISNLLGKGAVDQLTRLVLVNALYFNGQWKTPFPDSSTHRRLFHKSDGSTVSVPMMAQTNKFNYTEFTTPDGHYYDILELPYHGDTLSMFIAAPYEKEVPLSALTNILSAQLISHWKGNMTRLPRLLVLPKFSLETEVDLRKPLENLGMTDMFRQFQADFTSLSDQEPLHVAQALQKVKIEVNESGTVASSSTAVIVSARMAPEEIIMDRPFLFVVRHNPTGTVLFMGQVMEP
Sequence of human PAI-1 (P05121 24-402): as above

Turning to `CCCCCc1c(-c2ccc3nc(C(F)(F)F)cc(OCc4nnn[nH]4)c3c2)oc2ccccc12` [Compound 2, 6-(3-Pentyl-1-benzofuran-2-yl)-4-(1H-tetraazol-5-ylmethoxy)-2-(trifluoromethyl)-quinoline], the melting point is 207 to 209 °C (dec.). Further, the IC50 against human PAI-1 was 21.5 µM.
For the molecule `c1ccc(-c2c(-c3ccc(OCc4nnn[nH]4)c4ncccc34)oc3ccccc23)cc1` [Compound 4, 5-(3-Phenyl-1-benzofuran-2-yl)-8-quinolinyl 1H-tetraazol-5-ylmethyl ether], the inhibition at 25 µM in series [1] was found to be 55%.
Take `c1ccc(-c2c(-c3ccc(OCc4nnn[nH]4)c4ncccc34)oc3ccccc23)cc1` (as salt: salt) [Compound 4, 5-(3-Phenyl-1-benzofuran-2-yl)-8-quinolinyl 1H-tetraazol-5-ylmethyl ether]: the melting point is > 273 °C (dec.).
Take `FC(F)(F)c1cc(OCc2nnn[nH]2)c2cc(-c3cc4ccccc4o3)ccc2n1` [Compound 1, 6-(1-Benzofuran-2-yl)-2-(trifluoromethyl)quinolin-4-yl 1H-tetraazol-5-ylmethyl ether]: the melting point is > 225 °C (dec.). For the same molecule, the IC50 in series [1] worked out at 38.6 µM.
Turning to `CCCCCc1c(-c2ccc(OCc3nnn[nH]3)c3ncccc23)oc2ccccc12` [Compound 5, 5-(3-Pentyl-1-benzofuran-2-yl)-8-(1H-tetraazol-5-ylmethoxy)quinoline], in series [1], the IC50 was 8.1 µM.
With `CCCCCc1c(-c2ccc(OCc3nnn[nH]3)c3ncccc23)oc2ccccc12` (as salt: salt) [Compound 5, 5-(3-Pentyl-1-benzofuran-2-yl)-8-(1H-tetraazol-5-ylmethoxy)quinoline], the melting point was 226 to 228 °C (dec.).
Turning to `c1ccc2oc(-c3ccc(OCc4nnn[nH]4)c4ncccc34)cc2c1` [Compound 3, 5-(1-Benzofuran-2-yl)-8-(1H-tetraazol-5-ylmethoxy)quinoline], the inhibition at 25 µM in series [1] amounted to 20%.
With `c1ccc2oc(-c3ccc(OCc4nnn[nH]4)c4ncccc34)cc2c1` (as salt: salt) [Compound 3, 5-(1-Benzofuran-2-yl)-8-(1H-tetraazol-5-ylmethoxy)quinoline], the melting point was > 240 °C (dec.).

Values taken from patent US7446201B2, “Substituted heteroaryl benzofuran acids” (Wyeth, priority 2003, dated 2008).
